From the supplement of paper PMC10307832

Assays:
Assay in all cases: relative viability (nuclei count vs DMSO), 5 days (fraction); higher = more cells survive
AZ505 + Vorinostat = compound: C1CCC(CC1)N(CCNCCC2=C3C(=C(C=C2)O)NC(=O)CO3)C(=O)CCNCCC4=CC(=C(C=C4)Cl)Cl [AZ505] + O=C(CCCCCCC(=O)Nc1ccccc1)NO [Vorinostat] (partner 1 µM)
In short: (§1)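 Nuclei were stained with Hoechst during a one-step fixation (final 0.05% Triton X-100, 1% formaldehyde, 1 ug/ml Hoechst) carried out 5 days after dosing, then counted on 4× images. The cells, lung cancer lines in 1536-well plates, had been dosed by pin tool the day after seeding with one drug alone or a fixed anchor-drug dose plus five library-drug doses (not always all listed) in √10 steps. Relative viability is the nuclei count in treated wells divided by that in vehicle wells, and each value is the median of duplicate plates.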

Dactolisib + Navitoclax = compound: Cn1c(=O)n(-c2ccc(C(C)(C)C#N)cc2)c2c3cc(-c4cnc5ccccc5c4)ccc3ncc21 [Dactolisib] + CC1(C)CCC(c2ccc(Cl)cc2)=C(CN2CCN(c3ccc(C(=O)NS(=O)(=O)c4ccc(N[C@H](CCN5CCOCC5)CSc5ccccc5)c(S(=O)(=O)C(F)(F)F)c4)cc3)CC2)C1 [Navitoclax] (partner 0.5 µM)
In short: as §1

AZ505 + OSI-027 = compound: C1CCC(CC1)N(CCNCCC2=C3C(=C(C=C2)O)NC(=O)CO3)C(=O)CCNCCC4=CC(=C(C=C4)Cl)Cl [AZ505] + COc1cccc2cc(-c3nc([C@H]4CC[C@H](C(=O)O)CC4)n4ncnc(N)c34)[nH]c12 [OSI-027] (partner 0.5 µM)
In short: as §1

Dactolisib + Linsitinib = compound: Cn1c(=O)n(-c2ccc(C(C)(C)C#N)cc2)c2c3cc(-c4cnc5ccccc5c4)ccc3ncc21 [Dactolisib] + C[C@]1(O)C[C@@H](c2nc(-c3ccc4ccc(-c5ccccc5)nc4c3)c3c(N)nccn32)C1 [Linsitinib] (partner 1 µM)
In short: as §1

Row | Cell Line | relative viability (AZ505 + Vorinostat; first compound 0.08 µM) | relative viability (AZ505 + Vorinostat; first compound 0.8 µM) | relative viability (AZ505 + Vorinostat; first compound 2.53 µM) | relative viability (AZ505 + Vorinostat; first compound 8 µM) | relative viability (Dactolisib + Navitoclax; first compound 0.002 µM) | relative viability (Dactolisib + Navitoclax; first compound 0.006325 µM) | relative viability (Dactolisib + Navitoclax; first compound 0.02 µM) | relative viability (Dactolisib + Navitoclax; first compound 0.06325 µM) | relative viability (Dactolisib + Navitoclax; first compound 0.2 µM) | relative viability (AZ505 + OSI-027; first compound 0.08 µM) | relative viability (AZ505 + OSI-027; first compound 0.253 µM) | relative viability (AZ505 + OSI-027; first compound 0.8 µM) | relative viability (AZ505 + OSI-027; first compound 2.53 µM) | relative viability (AZ505 + OSI-027; first compound 8 µM) | relative viability (Dactolisib + Linsitinib; first compound 0.002 µM) | relative viability (Dactolisib + Linsitinib; first compound 0.006325 µM) | relative viability (Dactolisib + Linsitinib; first compound 0.02 µM) | relative viability (Dactolisib + Linsitinib; first compound 0.06325 µM) | relative viability (Dactolisib + Linsitinib; first compound 0.2 µM) | relative viability (AZ505 + Vorinostat; first compound 0.253 µM)
1 | NCI-H2405 | 0.811 | 0.823 | 0.856 | 0.863 | 0.727 | 0.935 | 0.831 | 0.391 | 0.25 | 0.436 | 0.511 | 0.528 | 0.574 | 0.501 | 0.936 | 0.76 | 0.755 | 0.323 | 0.275 | 
2 | NCI-H3122 | 0.807 | 1.03 | 0.992 | 1.01 | 1.02 | 1.05 | 0.993 | 0.809 | 0.491 | 0.927 | 0.917 | 1.05 | 0.875 | 0.996 | 0.982 | 0.993 | 0.989 | 0.671 | 0.53 | 1.02
3 | PC-3 [JPC-3] | 0.821 | 0.786 | 0.934 | 1.09 | 0.796 | 0.787 | 0.879 | 0.742 | 0.509 | 0.671 | 0.798 | 0.712 | 0.707 | 0.797 | 0.996 | 0.984 | 1.03 | 0.816 | 0.639 | 
4 | PC-14 | 0.527 | 0.659 | 0.688 | 0.761 | 1.09 | 1.06 | 1.06 | 0.329 | 0.432 | 0.72 | 0.835 | 0.666 | 0.765 | 0.786 | 1.04 | 1.02 | 0.945 | 0.644 | 0.407 | 0.79
5 | RERF-LC-KJ | 0.616 | 0.564 | 0.672 | 0.669 | 0.875 | 1.03 | 0.697 | 0.455 | 0.609 | 0.471 | 0.575 | 0.552 | 0.574 | 0.492 | 0.86 | 0.908 | 0.849 | 0.646 | 0.495 | 0.689
6 | SK-LU-1 | 0.488 | 0.513 | 0.548 | 0.588 | 1.14 | 0.627 | 0.707 | 0.673 | 0.319 | 0.168 | 0.184 | 0.201 | 0.197 | 0.255 | 1.26 | 0.988 | 0.728 | 0.494 | 0.397 | 0.463
7 | SK-MES-1 | 0.889 | 0.969 | 0.893 | 0.995 | 1.34 | 1.17 | 1.1 | 0.574 | 0.55 | 0.501 | 0.53 | 0.534 | 0.577 | 0.583 | 1.1 | 1.12 | 0.999 | 0.953 | 0.467 | 1
8 | SW 1573 | 0.807 | 1.53 | 0.756 | 0.79 | 1.09 | 0.866 | 0.775 | 0.252 | 0.294 | 0.589 | 0.579 | 0.689 | 0.68 | 0.63 | 0.824 | 0.606 | 0.525 | 0.297 | 0.242 | 0.806
